assay: Inhibition of Glycogen synthase kinase-3beta (GSK3-beta)

| SMILES | IC50 |
| --- | --- |
| O=C1NC(=O)C2=C1c1cn(c3ccccc13)CCOCCOCCOCCOCCOCCn1cc2c2ccccc21 [17,20,23,26,29-pentaoxa-4,14,32-triazahexacyclo[30.6.1.17,14.02,6.08,13.033,38]tetraconta-1(39),2(6),7(40),8,10,12,33,35,37-nonaene-3,5-dione] | 51 nM |
| O=C1NC(=O)C2=C1c1cn(c3ccccc13)CCOCCOCCOCCOCCn1cc2c2ccccc21 [17,20,23,26-tetraoxa-4,14,29-triazahexacyclo[27.6.1.17,14.02,6.08,13.030,35]heptatriaconta-1(36),2(6),7(37),8,10,12,30,32,34-nonaene-3,5-dione] | 26 nM |
| O=C1NC(=O)C2=C1c1cn(c3ncccc13)CCOCCOCCOCCOCCn1cc2c2cccnc21 [17,20,23,26-tetraoxa-4,12,14,29,31-pentaazahexacyclo[27.6.1.17,14.02,6.08,13.030,35]heptatriaconta-1(36),2(6),7(37),8,10,12,30,32,34-nonaene-3,5-dione] | 48 nM |
| O=C1NC(=O)C2=C1c1cn(c3ncccc13)CCOCCOCCOCCOCCOCCn1cc2c2cccnc21 [17,20,23,26,29-pentaoxa-4,12,14,32,34-pentaazahexacyclo[30.6.1.17,14.02,6.08,13.033,38]tetraconta-1(39),2(6),7(40),8,10,12,33,35,37-nonaene-3,5-dione] | 403 nM |

The remaining lines, values ahead:

| IC50 | SMILES |
| --- | --- |
| 136 nM | O=C1NC(=O)C2=C1c1cn(c3ccccc13)CCOCCOCCn1cc2c2ccccc21 [17,20-dioxa-4,14,23-triazahexacyclo[21.6.1.17,14.02,6.08,13.024,29]hentriaconta-1(30),2(6),7(31),8,10,12,24,26,28-nonaene-3,5-dione] |
| 34 nM | O=C1NC(=O)C2=C1c1cn(c3ncccc13)CCOCCOCCOCCn1cc2c2cccnc21 [17,20,23-trioxa-4,12,14,26,28-pentaazahexacyclo[24.6.1.17,14.02,6.08,13.027,32]tetratriaconta-1(33),2(6),7(34),8,10,12,27,29,31-nonaene-3,5-dione] |
| 138 nM | O=C1NC(=O)C2=C1c1cn(c3ccccc13)CCOCCOCCn1cc2c2cccnc21 [17,20-dioxa-4,12,14,23-tetraazahexacyclo[21.6.1.17,14.02,6.08,13.024,29]hentriaconta-1(30),2(6),7(31),8,10,12,24,26,28-nonaene-3,5-dione] |
| 620 nM | O=C1NC(=O)C2=C1c1cn(c3ncccc13)CCOCCOCCn1cc2c2cccnc21 [17,20-dioxa-4,12,14,23,25-pentaazahexacyclo[21.6.1.17,14.02,6.08,13.024,29]hentriaconta-1(30),2(6),7(31),8,10,12,24,26,28-nonaene-3,5-dione] |
